Tests used:
[1] = system: Tat transactivation of the HIV-1 LTR; assay: Tat transactivation assay, HeLa-CD4-LTR-Luc cells; assay type: cell-based
Protocol: Chloroquine 100 μM was added to increase Tat uptake was added to all points except untreated wells. Luciferase activity was measured 24 h later using the Luciferase Assay System (Promega). Luciferase activity per protein concentration of each sample is shown as relative light units (RLU). HI: Heat Inactivated.
FIG. 2B: HeLa-LTR-Luc cells were transfected with 2 μg of a construct expressing Tat-flag driven by the thymidine kinase (TK) promoter. […] Forty hours later RLU determined as in FIG. 2A.
Luciferase activity measured and results adjusted per protein concentration of each sample, relative light units (RLU).
PL11 cells were plated at 1×10^5 cells per well in a 6 well plate. The following day recombinant Tat protein (AIDS Research and Reference Reagent Program, Cat No. 11882) at 5 μg/ml and/or Cortistatin A at increasing concentrations were added to the cells, in culture media without serum and in the presence of 100 μM of chloroquine (increases Tat uptake). Five hours later, serum was added at 5% to the culture media. Forty hours later cells were lysed with 1× Lysis Buffer and luciferase activity was measured as before. Protein concentration was determined by Bradford assay. Results corresponding to the adjustment of the luciferase activity per protein concentration of each sample are shown as RLU. […]

Tat = assay: Tat-flag sub-cellular localization by immunofluorescence; assay type: cell-based, HIV-1; conditions: HeLa-CD4 cells transfected with Tat-flag
Protocol: Flag epitope-tagged Tat was recognized with anti-flag and AlexaFluor 568 anti-IgG. Transfections were performed in HeLa-CD4 cells. Magnification 300×.
Flag recognized with anti-flag and AlexaFluor 568 anti-IgG antibodies. Endogenous fibrillarin stained with anti-fibrillarin and FITC-anti-IgG antibodies.
HeLa cells were grown on fibronectin treated coverslips and transfected with the indicated plasmids. Following transfection, cells were treated with DMSO or dCA. Cells were then fixed with 3.7% formaldehyde. After fixation, the cells were permeabilized with 0.1% triton X-100 in PBS with 5% FBS. Primary antibodies (mouse α-FLAG M2 (Sigma), rabbit α-Fibrillarin C13C3 (Cell Signaling), and/or rabbit α-Cyclin T1 H-245 (Santa Cruz)) were added along with the permeabilization solution and incubated at room temperature for 1 hour. The cells were washed with PBS and incubated with 1:500 dilution of Alexa Fluor conjugated secondary antibodies in PBS containing 5% FBS for 1 hour in the dark. […]
Given that dCA interacts with Tat via its basic domain, which is also the nucleolar localization signal (NoLS), it was questioned whether dCA impacts Tat localization. […] The Tat basic mutant was analyzed in parallel, and this protein was completely excluded from the nucleolus both in the presence or absence of dCA.

HIV-1 pNL43 = assay: HIV-1 replication in PHA/IL-2 stimulated human PBMCs, p24 ELISA; assay type: cell-based
Protocol: Freshly isolated uninfected human PBMCs were stimulated with PHA for two days, washed, and grown from then on in IL-2 alone. […] Antigen p24 was measured 5 days post infection using a sandwich ELISA kit.
To isolate PBMCs, 24 ml of total blood diluted two fold in RPMI or PBS were carefully layered over 12 ml of Ficoll-paque and centrifuged at 2000 rpm for 20 min (brakes off). Resultant layers are approximately from top to bottom: plasma-platelets-PBMC-Ficoll-red blood cells (with granulocytes). Most of the plasma was pipetted off and discarded. The buffy coat with PBMC's was carefully removed from 3 large (50 ml) tubes and transferred to a new 50 ml tube. The remaining Ficoll and red blood cells were discarded in closed tubes. Enough PBS was added to the PBMCs to make up 50 ml and centrifuged at 1200 rpm for 10 min, brakes on. The supernatant was decanted and the pellet was loosened and washed twice with PBS. Washed pellet was recovered in 30 ml of RPMI 1640 supplemented with 10% serum, 1% Penicillin-streptomycin and mixed well. PBMCs were counted and plated at 1×10^6 cells/ml. To activate the PBMCs, PHA (phytohaemagglutinin) was added at 3 μg/ml. Two to three days later add Interleukin 2 (IL2) at 3×10^−3 μg/ml.
PHA activated PBMCs were centrifuged and recovered at 6×10^6 cells in 3 ml complete RPMI. Then 3 ml of viral supernatant was added and incubated for 4 h at 37° C. After this period, cells were centrifuged, washed 3 times with PBS and recovered in 3 ml complete RPMI. PBMCs were plated at 0.5 ml per well in a 6-well plate, and 0.5 ml media with DMSO control or anti-viral control at 2× final concentration was added. IL-2 was added at 3×10^−3 μg/ml. Supernatant was recovered for p24 assay every 3-4 days post infection. Cells were split at 1×10^6 cell per ml every 5-7 days.
HIV-1 transcription is intimately linked to T-cell activation due to shared motifs between the HIV-LTR and the regulatory regions in induced genes, namely NF-κB. A large variety of T cell stimuli activate NF-κB, including PHA, IL-2 and tumor necrosis factor alpha (TNF-α).

[2] = biological target: T1, DNA-dependent protein kinase (DNA-PK) catalytic subunit (Homo sapiens, UniProt P78527); assay: Bio-CA pull-down / mass spectrometry, DNA-PK; assay type: binding
T1 construct: endogenous in cells; host or cells: P42 (HeLa-CD4-LTR-LacZ) cells; HEK293T cells
Protocol: FIG. 14: Bio-CA associated proteins. […] After SDS-PAGE analysis and Coomassie staining, gel slices were trypsin-digested and sent to mass spectrometry analysis.
To identify cellular proteins associated with CA, a biotinylated form of the compound (Bio-CA) was used. […] The Bio-CA was used to cover streptavidin-coated magnetic beads to pull down interacting proteins from either uninfected or chronically infected lysates of cells grown in the presence or absence of CA for 48 hours (FIG. 14D). The identity of the proteins pulled down under the different conditions was determined by HPLC MS/MS analysis. The proteins were identified with a greater than 95% confidence using a proprietary Scripps proteomics software package for protein identification, statistical analysis, and mass/peptide sequence correlation. The HIV proteome was added to the proteomics software search database before analysis. Many proteins were identified in uninfected untreated and in chronically untreated samples (approximately 300), however only 53 were displaced by more than 50% by the presence of CA. Of these 53 proteins, it appears that at least 2 may have a role in HIV-1 replication: DNA-dependent protein kinase catalytic subunit (DNA-PK) and helicase like transcription factor (HLTF).

T1 sequence (P78527 whole entry): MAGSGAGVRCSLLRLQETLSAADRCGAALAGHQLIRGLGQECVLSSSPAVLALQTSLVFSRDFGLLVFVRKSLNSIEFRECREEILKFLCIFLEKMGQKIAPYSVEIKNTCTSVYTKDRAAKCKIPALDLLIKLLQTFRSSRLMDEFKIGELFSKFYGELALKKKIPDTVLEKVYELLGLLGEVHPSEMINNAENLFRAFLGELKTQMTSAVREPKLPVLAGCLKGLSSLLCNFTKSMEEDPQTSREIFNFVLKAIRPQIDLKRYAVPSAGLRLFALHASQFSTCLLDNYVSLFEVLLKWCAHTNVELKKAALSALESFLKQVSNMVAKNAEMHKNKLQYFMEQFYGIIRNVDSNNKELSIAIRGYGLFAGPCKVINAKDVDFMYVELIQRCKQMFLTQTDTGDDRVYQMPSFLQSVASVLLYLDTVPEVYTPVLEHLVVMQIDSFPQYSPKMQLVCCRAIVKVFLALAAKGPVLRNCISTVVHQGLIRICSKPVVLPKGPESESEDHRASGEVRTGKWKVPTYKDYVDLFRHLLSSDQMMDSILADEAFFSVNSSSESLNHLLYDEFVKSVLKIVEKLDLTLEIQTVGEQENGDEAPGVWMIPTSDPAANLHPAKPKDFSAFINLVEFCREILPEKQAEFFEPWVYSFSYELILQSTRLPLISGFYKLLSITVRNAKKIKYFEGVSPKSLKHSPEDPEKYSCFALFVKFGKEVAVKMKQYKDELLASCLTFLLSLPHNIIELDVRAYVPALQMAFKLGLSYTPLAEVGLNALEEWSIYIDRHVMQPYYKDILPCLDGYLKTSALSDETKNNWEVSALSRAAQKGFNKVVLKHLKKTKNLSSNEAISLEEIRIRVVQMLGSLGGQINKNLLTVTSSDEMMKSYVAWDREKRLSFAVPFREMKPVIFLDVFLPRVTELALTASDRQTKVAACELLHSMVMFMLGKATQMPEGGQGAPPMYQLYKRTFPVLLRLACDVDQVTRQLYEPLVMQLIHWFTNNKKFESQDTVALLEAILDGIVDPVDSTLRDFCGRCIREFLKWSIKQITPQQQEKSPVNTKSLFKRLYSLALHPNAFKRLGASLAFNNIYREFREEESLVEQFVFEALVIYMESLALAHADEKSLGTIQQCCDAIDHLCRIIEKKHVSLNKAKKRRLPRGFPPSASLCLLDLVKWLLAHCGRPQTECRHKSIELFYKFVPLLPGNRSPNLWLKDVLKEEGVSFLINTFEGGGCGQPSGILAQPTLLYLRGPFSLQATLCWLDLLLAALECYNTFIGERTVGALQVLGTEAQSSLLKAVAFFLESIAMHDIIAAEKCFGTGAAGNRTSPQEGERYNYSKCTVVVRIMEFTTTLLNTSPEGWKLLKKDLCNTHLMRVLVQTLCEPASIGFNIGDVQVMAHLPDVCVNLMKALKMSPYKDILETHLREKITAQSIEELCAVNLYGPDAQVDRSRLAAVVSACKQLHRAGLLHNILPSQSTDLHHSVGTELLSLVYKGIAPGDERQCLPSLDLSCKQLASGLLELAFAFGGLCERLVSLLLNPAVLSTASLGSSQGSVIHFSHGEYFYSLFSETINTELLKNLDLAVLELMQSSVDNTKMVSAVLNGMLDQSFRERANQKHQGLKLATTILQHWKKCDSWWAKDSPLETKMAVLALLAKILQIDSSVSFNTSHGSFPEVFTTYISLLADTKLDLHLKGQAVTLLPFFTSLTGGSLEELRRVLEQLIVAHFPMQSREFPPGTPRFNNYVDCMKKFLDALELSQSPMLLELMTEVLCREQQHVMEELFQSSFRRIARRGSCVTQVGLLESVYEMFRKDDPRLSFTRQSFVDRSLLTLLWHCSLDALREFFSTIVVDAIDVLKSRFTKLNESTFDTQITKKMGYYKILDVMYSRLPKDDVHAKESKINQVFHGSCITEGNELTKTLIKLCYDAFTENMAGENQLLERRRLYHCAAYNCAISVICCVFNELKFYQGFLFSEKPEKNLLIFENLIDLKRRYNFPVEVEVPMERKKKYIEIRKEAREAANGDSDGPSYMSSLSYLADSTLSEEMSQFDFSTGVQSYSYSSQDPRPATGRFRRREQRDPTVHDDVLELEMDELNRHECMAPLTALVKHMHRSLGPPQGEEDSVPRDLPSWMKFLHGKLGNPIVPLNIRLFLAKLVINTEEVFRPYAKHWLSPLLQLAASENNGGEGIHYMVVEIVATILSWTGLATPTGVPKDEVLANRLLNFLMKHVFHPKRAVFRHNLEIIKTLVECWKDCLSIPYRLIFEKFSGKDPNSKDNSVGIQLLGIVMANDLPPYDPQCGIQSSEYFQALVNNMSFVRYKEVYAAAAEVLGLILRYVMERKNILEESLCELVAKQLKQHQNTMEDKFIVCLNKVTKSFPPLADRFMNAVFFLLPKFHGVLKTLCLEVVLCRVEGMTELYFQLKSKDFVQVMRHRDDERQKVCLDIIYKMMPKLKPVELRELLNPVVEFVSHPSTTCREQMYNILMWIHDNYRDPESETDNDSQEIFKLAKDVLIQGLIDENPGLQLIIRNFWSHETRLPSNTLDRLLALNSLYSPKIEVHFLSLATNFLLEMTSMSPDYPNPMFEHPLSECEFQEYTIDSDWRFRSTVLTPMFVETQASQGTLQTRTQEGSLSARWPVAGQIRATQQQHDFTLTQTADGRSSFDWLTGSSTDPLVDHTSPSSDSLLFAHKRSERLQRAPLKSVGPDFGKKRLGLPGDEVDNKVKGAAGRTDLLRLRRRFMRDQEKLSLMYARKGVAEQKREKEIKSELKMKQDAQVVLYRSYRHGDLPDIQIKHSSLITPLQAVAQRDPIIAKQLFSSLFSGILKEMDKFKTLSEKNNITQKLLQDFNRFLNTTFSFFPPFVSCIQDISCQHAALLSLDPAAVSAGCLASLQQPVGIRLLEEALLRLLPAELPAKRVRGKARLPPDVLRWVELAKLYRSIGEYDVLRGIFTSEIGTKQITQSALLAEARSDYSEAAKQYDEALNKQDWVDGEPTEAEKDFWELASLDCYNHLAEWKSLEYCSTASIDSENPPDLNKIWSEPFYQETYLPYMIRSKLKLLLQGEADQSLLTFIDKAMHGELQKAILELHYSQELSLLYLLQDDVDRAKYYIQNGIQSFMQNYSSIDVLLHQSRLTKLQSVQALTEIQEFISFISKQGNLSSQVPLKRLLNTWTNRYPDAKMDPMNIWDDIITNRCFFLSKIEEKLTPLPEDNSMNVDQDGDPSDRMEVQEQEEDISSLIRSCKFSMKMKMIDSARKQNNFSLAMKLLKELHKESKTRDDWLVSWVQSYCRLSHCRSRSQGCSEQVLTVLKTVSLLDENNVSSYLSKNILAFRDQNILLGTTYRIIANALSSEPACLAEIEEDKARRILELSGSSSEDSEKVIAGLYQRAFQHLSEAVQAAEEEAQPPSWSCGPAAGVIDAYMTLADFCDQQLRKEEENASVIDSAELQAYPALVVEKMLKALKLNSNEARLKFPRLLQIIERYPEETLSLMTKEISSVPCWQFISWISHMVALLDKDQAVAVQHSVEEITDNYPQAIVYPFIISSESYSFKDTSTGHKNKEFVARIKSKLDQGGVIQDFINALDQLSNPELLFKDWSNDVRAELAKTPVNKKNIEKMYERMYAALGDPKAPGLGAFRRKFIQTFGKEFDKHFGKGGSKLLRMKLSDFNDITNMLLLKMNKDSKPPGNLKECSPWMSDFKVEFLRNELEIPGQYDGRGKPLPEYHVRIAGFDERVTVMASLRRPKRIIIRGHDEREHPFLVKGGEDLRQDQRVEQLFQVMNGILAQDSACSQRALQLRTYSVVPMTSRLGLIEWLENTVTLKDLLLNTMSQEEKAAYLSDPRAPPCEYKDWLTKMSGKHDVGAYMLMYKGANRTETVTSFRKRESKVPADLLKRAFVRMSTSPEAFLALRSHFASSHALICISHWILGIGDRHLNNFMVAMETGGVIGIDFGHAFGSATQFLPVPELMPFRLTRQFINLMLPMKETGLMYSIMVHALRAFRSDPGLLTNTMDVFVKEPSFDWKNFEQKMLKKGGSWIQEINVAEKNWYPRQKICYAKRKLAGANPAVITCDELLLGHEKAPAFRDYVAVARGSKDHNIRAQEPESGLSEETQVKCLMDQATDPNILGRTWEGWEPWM

Question: How did the “basal transcription from the LTR promoter” value ([1]; absence of Tat, or PMA activation) turn out when `CN(C)[C@H]1C[C@@]23CC[C@@]4(O2)C(=CC[C@]2(C)C(c5ccc6ccncc6c5)=CC[C@H]24)C=C3[C@@H](O)[C@@H]1O` [dCA, didehydro-Cortistatin A] was run?
Answer: did not alter basal transcription

Question: What about the “Tat-mediated transcriptional activation of LTR-Luc” value ([1]; recombinant Tat protein added) of the same molecule?
Answer: Transcriptional repression

Question: What about the “effect on Tat localization” value (Tat) of the same molecule?
Answer: redistribution of Tat to the periphery of the nucleolus

Question: And the “maximum inhibition plateau in PBMCs” value (HIV-1 pNL43)?
Answer: 86%

Question: What about the EC50 (HIV-1 pNL43; p24 ELISA, 5 days post infection, read-out: EC50, HIV-1 replication in primary cells (PBMCs)) of the same molecule?
Answer: < 1 nM

Question: And the “interaction with DNA-PK” value [2]?
Answer: interaction

— patent US9682994B2, “Inhibitors of retroviral replication” (The Scripps Research Institute, priority 2011, dated 2017)
